# Where a chain is given by its changes, count along the chain named.
# What was measured:
# Format in all cases: binding
# [1] = molecular target: T1, DNA polymerase α catalytic subunit (POLA1) (Homo sapiens, UniProt P09884, L700S); assay: CD437 fluorescence intensity enhancement titration
# T1 sequence (P09884 335-1257 L700S): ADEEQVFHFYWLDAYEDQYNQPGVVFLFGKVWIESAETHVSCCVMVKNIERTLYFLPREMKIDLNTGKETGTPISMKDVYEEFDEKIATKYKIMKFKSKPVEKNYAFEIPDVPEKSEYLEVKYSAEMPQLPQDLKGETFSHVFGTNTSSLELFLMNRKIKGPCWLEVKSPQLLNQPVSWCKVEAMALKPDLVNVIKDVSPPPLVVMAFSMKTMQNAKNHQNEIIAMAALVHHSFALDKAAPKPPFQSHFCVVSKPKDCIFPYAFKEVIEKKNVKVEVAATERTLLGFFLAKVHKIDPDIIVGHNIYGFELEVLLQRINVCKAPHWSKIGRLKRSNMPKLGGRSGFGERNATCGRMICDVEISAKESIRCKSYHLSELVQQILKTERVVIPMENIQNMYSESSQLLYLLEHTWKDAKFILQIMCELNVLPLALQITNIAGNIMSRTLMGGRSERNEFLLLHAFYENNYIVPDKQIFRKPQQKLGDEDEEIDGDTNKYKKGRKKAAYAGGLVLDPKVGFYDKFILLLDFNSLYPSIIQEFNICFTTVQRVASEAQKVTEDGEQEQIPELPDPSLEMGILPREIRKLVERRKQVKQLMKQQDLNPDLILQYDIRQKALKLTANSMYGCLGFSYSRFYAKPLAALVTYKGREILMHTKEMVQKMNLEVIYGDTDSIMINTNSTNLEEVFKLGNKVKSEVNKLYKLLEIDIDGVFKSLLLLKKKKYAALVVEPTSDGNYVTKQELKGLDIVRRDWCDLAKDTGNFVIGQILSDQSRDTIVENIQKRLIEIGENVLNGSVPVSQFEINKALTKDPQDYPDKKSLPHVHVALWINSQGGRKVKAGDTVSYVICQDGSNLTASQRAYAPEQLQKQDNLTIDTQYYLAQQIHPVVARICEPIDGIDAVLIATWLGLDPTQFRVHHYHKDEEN
# [2] = molecular target: T2, DNA polymerase α catalytic subunit (POLA1) (Homo sapiens, UniProt P09884, L764S); assay: CD437 fluorescence intensity enhancement titration
# T2 sequence (P09884 335-1257 L764S): T1 sequence (P09884 335-1257 L700S) with S366L, L430S
# [3] = molecular target: T3, DNA polymerase α catalytic subunit (POLA1) (Homo sapiens, UniProt P09884); assay: CD437 fluorescence intensity enhancement and anisotropy titration
# T3 sequence (P09884 335-1257): T1 sequence (P09884 335-1257 L700S) with S366L
structure (smiles),measurement,setting,value
"O=C(O)c1ccc2cc(-c3ccc(O)c(C45CC6CC(CC(C6)C4)C5)c3)ccc2c1 [CD437, 6-[3-(1-adamantyl)-4-hydroxyphenyl]-2-naphthalene carboxylic acid]",Kd,[1],< 5 nM
same,Kd,[2],94 ± 18 nM
same,Kd,[3],67 ± 22 nM

# From article PMC4912453 (Nature chemical biology, 2016)
